The subject of data set [1] is human coronary vascular smooth muscle cells (CASMCs). The data set is described as follows: Inhibition experiment of the proliferation of CASMCs (WST-1 formazan assay, absorbance 450 nm). The data set is classed as cell-based. The procedure: The CASMCs were purchased from Clonetics Co., and cultured at 37° C., 5% CO2 using an attached culture kit (SmGM-2) in a culture medium comprising 5% fetal bovine serum (FBS), 2 ng/ml human basic fibroblast growth factor (b-FGF), 5 μg/ml bovine insulin, and 0.5 ng/ml human epidermal growth factor.
The CASMCs were cultured in a 96-well plate as in the Example 1 so that about 70˜80% of the area of each well was occupied by the cells, then put into a nutrition-depletion state for 24 hours under a non-serum condition. Roxythromycin (RXM) was then added as a test compound to the culture medium to give various concentration (0.1, 1.0, 10, 100 μg/ml) and the cells were cultured further for 24˜72 hours. The degree of growth of the cells was assayed at each elapsed time by formazan-formation coloring test with WST-1 agent using Takara Premix WST-1 Cell Proliferation Assay System Kit. Actually, Premix WST-1 was added 10 μl each followed by detection of absorbance at 450 nm by means of a plate reader.
The same experiments were conducted using other anti-bacterial and anti-fungal agents.
On the technique in general: Tetrazolium assays rely on reduction of a dye to a coloured formazan, in cell work by metabolically active cells.

Data set [2] relates to CDKIs-p27. The data set is described as follows: Western blot analysis of CDKIs-p27 expression in mitogen-stimulated CASMCs. The data set is classed as cell-based, human. As to conditions: RXM 1-10 μg/ml, under stimulation with the mitogens, FIG. 5. The procedure: (§1) Western blot was carried out as follows. After the completion of SDS gel electrophoresis, the resulting bands were transferred to PVDF membrane, blocked with dry milk, incubated successively with a first antibody (anit-phosphorylated Rb rabbit antibody) and a labeled second antibody (anti-rabbit IgG mouse antibody), developed using alkaline phosphatase immuno blot kit and determined by means of a densitometer. The operating conditions in these steps were standard ones known to those skilled in the art.
(§2) In order to examine what kind of modification of intracellular molecules was responsible for the RXM's inhibition of the production of phosphorylated Rb in CASMCs, the analysis was carried out by means of Western blot in the same conditions as in Example 5, focusing attention on […] (CDKIs) that was known to control the intracellular molecules, especially on its major molecules, CDKIs-p27 and CDKIs-p21.
(§3) As an expresssion level of both CDKIs-p27 and CDKIs-p21 was so low in a normal cell that it could not be detected by Western blot, the analysis was actually done on the cells activated after stimulation with the mitogens in the same way as in Example 5.

Data set [3] deals with CDKIs-p21. The data set is described as follows: Western blot analysis of CDKIs-p21 expression in mitogen-stimulated CASMCs. The data set is classed as cell-based, human. As to conditions: RXM 1-10 μg/ml, under stimulation with the mitogens, FIG. 5. As to the method:
as §1, §2, §3

In data set [4] the test system is phosphorylated Rb (retinoblastoma gene products). The data set is described as follows: Western blot analysis of phosphorylated Rb in mitogen-stimulated CASMCs. The data set is classed as cell-based, human. As to conditions: RXM 1-10 μg/ml, FIG. 4. As to the method:
It was analyzed whether or not the RXM's inhibition of the stage from G1 phase to S phase of CASMCs was based on the inhibition of phophorylation of Rb (retinoblastoma gene products) that was supposed to be an essential intracellular molecule for transition in the cell cycle. The analysis was carried out using phosphorylated Rb as a marker by means of Western blot with a monoclonal antibody specifically recognizing phosphorylated Rb (Cell Signaling Technology Co.).
As a level of phosphorylated Rb was so low in normal conditions that it could not be detected by Western blot under normal conditions, the analysis was actually done after 5% FBS, 2 ng/ml human b-FGF, 5 μg/ml bovine insulin, and 0.5 ng/ml human epidermal growth factor had been added to the culture medium in order to stimulate CASMCs with mitogens up to an activated state and to increase an amount of the expressed phosphorylated Rb.
Western blot was carried out as follows. After the completion of SDS gel electrophoresis, the resulting bands were transferred to PVDF membrane, blocked with dry milk, incubated successively with a first antibody (anit-phosphorylated Rb rabbit antibody) and a labeled second antibody (anti-rabbit IgG mouse antibody), developed using alkaline phosphatase immuno blot kit and determined by means of a densitometer. […]
(Immunoblotting shows a protein as a band on a membrane.)

Data set [5] relates to human coronary vascular smooth muscle cells (CASMCs). Description: Cell cycle analysis of CASMCs by flow cytometry (propidium iodide). The class given is cell-based. As to conditions: RXM 10 μg/ml, FIG. 3. The procedure:
A further experiment was done using a flow cytometry in order to study when the RXM's direct inhibition activity of the proliferation of CASMCs was effected in a cell cycle.
The flow cytometry method was carried out in accordance with the following procedures and conditions.
The cells were fixed with 70% ethanol for 30 min and incubated with RNase (5 μg/ml) for 30 min. They were then incubated with propidium iodide (10 μg/ml) for 30 min, followed by detection with FACScan (Becton Dickinson Co.).
The transition ratio of the cell cycle was obtained by DNA histogram analysis with ModFit LT software, and shown as % for the total cells.
In general terms: In flow cytometry, cells or beads pass a laser one at a time.

For data set [6] the following is noted: background statement; cited from earlier work.
The subject of data set [7] is mouse. As to conditions: cited from earlier work.
Where [8] appears, read: 50 μg/ml, any time between 24 and 72 hours, FIG. 2.

Like-named read-outs stand apart in the source and are kept apart here.

As for `C[C@@H]1[C@H](O)[C@@H](C)/C=C/C=C/C=C/C=C/C=C/C=C/C=C/[C@H](O[C@@H]2O[C@H](C)[C@@H](O)[C@H](N)[C@@H]2O)C[C@@H]2O[C@](O)(C[C@@H](O)C[C@@H](O)[C@H](O)CC[C@@H](O)C[C@@H](O)CC(=O)O[C@H]1C)C[C@H](O)[C@H]2C(=O)O` [Amphotericin B], in data set [1] (50 ng/ml, any time between 24 and 72 hours, FIG. 2), the “inhibition of the proliferation of CASMCs” value (“inhibition … of CASMCs” below) is “none”.

Regarding `CC1(C)S[C@@H]2[C@H](NC(=O)[C@H](N)c3ccccc3)C(=O)N2[C@H]1C(=O)O` [Ampicilin], in data set [1] (setting [8]), the “inhibition … of CASMCs” value is “none”.

`CC[C@H]1OC(=O)[C@H](C)[C@@H](O[C@H]2C[C@@](C)(OC)[C@@H](O)[C@H](C)O2)[C@H](C)[C@@H](O[C@@H]2O[C@H](C)C[C@H](N(C)C)[C@H]2O)[C@](C)(O)C[C@@H](C)/C(=N\OCOCCOC)[C@H](C)[C@@H](O)[C@]1(C)O` [RXM, roxithromycin]: the “expression of CDKIs-p27 in CASMCs” value in data set [2] is “clearly increased in a RXM concentration-dependency manner”. For the same molecule, the “expression of CDKIs-p21” value in data set [3] is on record as “no clear difference was observed”. For the same molecule, the “inhibition … of CASMCs” value is recorded as “inhibited the proliferation of CASMCs to a statistically significant level” in data set [1] (RXM 1 μg/ml, any time during the observation (24-72 hours), vs RXM non-added group, FIG. 1A); “inhibited the proliferation of CASMCs to a statistically significant level” in data set [1] (RXM 10 μg/ml, any time during the observation (24-72 hours), vs RXM non-added group, FIG. 1A); “inhibited the proliferation of CASMCs to a statistically significant level in a drug-dependence manner” in data set [1] (range of 1-100 μg/ml, drug-dependence manner, vs RXM non-added group, FIG. 1B). In addition, the “production of phosphorylated Rb in CASMCs” value in data set [4] was “clearly inhibited”. Also, in data set [5], the “inhibition of the stage from G1 phase to S phase in a cell cycle” value is recorded as “inhibited a stage from G1 phase to S phase in a cell cycle to a statistically significant level”. Also, the “inhibition of the stage from S phase to G2/M phase” value in data set [5] is “did not inhibit”.

Turning to `CO[C@H]1C[C@@H]2CC[C@@H](C)[C@@](O)(O2)C(=O)C(=O)N2CCCC[C@H]2C(=O)O[C@H]([C@H](C)C[C@@H]2CC[C@@H](O)[C@H](OC)C2)CC(=O)[C@H](C)/C=C(\C)[C@@H](O)[C@@H](OC)C(=O)[C@H](C)C[C@H](C)/C=C/C=C/C=C/1C` [Rapamycin, rapamycin], the cytotoxicity entry in data set [6] was “strong cytotoxicity”.

Turning to `CC[C@H]1OC(=O)[C@H](C)[C@@H](O[C@H]2C[C@@](C)(OC)[C@@H](O)[C@H](C)O2)[C@H](C)[C@@H](O[C@@H]2O[C@H](C)C[C@H](N(C)C)[C@H]2O)[C@](C)(O)C[C@@H](C)C(=O)[C@H](C)[C@@H](O)[C@]1(C)O.Cl` [erythromaycin hydrochloride, erythromaycin], the “Acute toxicity (mouse LD50)” value in data set [7] (interperitoreal) is 490 ± 30.4 mg/kg; in data set [7] (vein), 425.6 ± 15.7 mg/kg.

Turning to Gentamicin, the “inhibition … of CASMCs” value in data set [1] (setting [8]) is listed as “none”.

Values taken from patent publication US20070010463A1, “Remedies for diseases caused by strengthened vascular smooth muscle using 14-membered ring macrolid compounds” (priority 2003, published 2007).
